Assay results published in paper PMC7728344, “Pharmacokinetic Characterization of (Poly)phenolic Metabolites in Human Plasma and Urine after Acute and Short-Term Daily Consumption of Mango Pulp” (Molecules, 2020).
Read-outs that look alike come from different tables or passages of the source.

What was measured:
clinical = assay type: in vivo, human; parameters: AUC0–24h: concentration or dose not given beside the values
Description: SPE procedure was conducted to extract and concentrate the (poly)phenolic compounds and their metabolites from the plasma samples. Briefly, plasma samples were thawed on ice and 500 µL plasma was diluted with 1.5 mL of 0.1% formic acid in water with addition of internal standards (2-methylhippuric acid (2 ng/mL), phloridizin (1 ng/mL)) before being loaded on preconditioned SPE cartridges. The cartridges were washed with 0.1% formic acid in water (1 mL) after loading with plasma samples. The elution of the compounds was achieved by 0.1% formic acid in methanol (1 mL) and the eluent was dried under nitrogen gas at room temperature. […] Supernatant was collected in amber HPLC vials before analysis.
The absorption and elimination of 11 major mango metabolites over 24 h was determined after MP, MP + VC, and VC intake. The plasma concentration/area at each time point was determined by the mean of 13 subjects. The time vs. concentration curves and the time vs. area curves were created using GraphPad Prism (version 8.2.1). […] Tmax is the time (h) when Cmax was achieved. Wilcoxon signed-rank test was used for Tmax analysis due to non-normal distribution. Area under the plasma concentration time curve (AUC0−24h, nmol·h/L) was calculated by the linear trapezoidal method using Microsoft Excel 2013, version 15 [63]. […]

[1] = Concentration of (poly)phenolic metabolites in fasting urine at baseline, 24 h after single MP beverage and 15th day after 14-day MP intake (UHPLC-QQQ-MS); details: for concentration at 15 day / concentration at 0 h / concentration at 24 h: human, urine, oral; for concentration at 0 h / concentration at 24 h: 500 g; for Concentration in fasting urine, Mean ± std Error, 0 h (Fasting) / Concentration in fasting urine, Mean ± std Error, 15 Days (Fasting) / Concentration in fasting urine, Mean ± std Error, 24 h (Fasting): in vivo
Source text: The acute trial was a randomized, 3 arm, within-subject crossover study design (Figure 5A). The trial initiated with 3 days of food record collection to assess background (pre-study) dietary intake followed by counseling to adhere to a diet devoid of mango or its parts and relatively low in polyphenol-rich beverages/foods, which was maintained throughout the duration of the trial. […] In general, subjects were encouraged to follow their “usual” diet with the exception of foods/beverages that may interfere with the outcomes of the study. Food intake diaries and, phone call and email reminders helped subjects maintain compliance throughout the study period. After an initial 7-day run-in period on the limited polyphenol diet, subjects were assigned to a randomization sequence providing 1 of 3 study test beverages (recipes provided in Appendix A, Table A3) on three separate days in a random order: MP (500 g), MP (500 g) + VC (100 mg) or VC (100 mg) beverages. On each study day subjects arrived fasted and well hydrated. After standard admission procedures were completed (e.g., review of compliance with dietary requirements for 3 days prior to study day, dinner meal intake, usual sleep patterns), a catheter was placed by a registered nurse in subjects’ non-dominant arm and a fasting/baseline blood sample was collected (0 h). Subjects were provided with a standard breakfast meal 2 h after the study beverages. The breakfast meal was comprised of a buttermilk biscuit with butter and jelly, and scrambled egg white with shredded white cheddar cheese. After the 6 h blood collection, subjects ate a low polyphenol lunch consisting of dry roasted peanuts and fresh peeled cucumber with ranch dressing (Appendix A, Table A3).
Spot urine samples were collected in urine collection cups, immediately placed on ice and then aliquoted into individual cryovials. All the samples were stored at −80 °C until analysis.
A 14-day feeding trial was conducted with the MP only to study the effect of repetitive intake of MP on (poly)phenolic metabolite profiles. Upon completion of the acute trial, subjects were instructed to continue on the low polyphenolic diet for 2 weeks while consuming MP beverages (provided by CNRC) daily in the morning (250 g MP + 50 g water) and evening (250 g MP + 50 g water). On day 14, subjects consumed both beverages (500 g of MP in total) in the morning and reported to the CNRC on the 15th day after an overnight fast to provide a fasting blood and urine sample (Figure 5B). Blood and urine samples were collected as described above and stored at −80 °C until analysis.
The supernatant was collected and filtered through 0.2 µm polypropylene syringe filter before HPLC analysis.
The ESI conditions were the same as those used in the UHPLC-Q-TOF analysis. The quantification of the compounds was conducted by multiple-reaction monitoring (MRM) transitions. Spectra were recorded in both positive- and negative-ion mode with capillary voltage of 4500 V and drying gas flow rate of 9 L/min at 200 °C. The sheath gas temperature and flow rate were 300 °C and 11 L/min, respectively. Standards were optimized for collision energies, fragmentor voltages and MRM transitions using Mass Hunter Optimizer. The MRM transition for metabolites were created based on the results from UHPLC-Q-TOF-MS. Standards for plasma analysis were prepared in blank plasma (charcoal-stripped human plasma obtained from Bioreclamation IVT) for matrix match and for urine analysis were prepared in SMP.
The flow rate was maintained at 0.4 mL/min and the injection volume was 5 μL. The mobile phase consisted of acidified water (0.1% formic acid) (A) and acidified acetonitrile (0.1% formic acid) (B). The gradient for the separation of compounds was as follows: 5 to 5% B from 0 to 1 min; 10% B at 3 min; 15% B at 7 min; 15% B at 9 min; 20% B at 10 min; 20% B at 11 min; 25% B at 12 min; 30% B at 13 min; 30% B at 14 min; 95% B at 15 min; and back to 5% B at 16 min.

[2] = human plasma, after VC beverage, mean ± standard error
[3] = human plasma, 0−24 h, after VC (vitamin C 100 mg) beverage, mean ± standard error, read-out: Cmax

For “methylpyrogallol glucuronide [Compound C9]”, the Tmax (clinical; [2]) was 8.0 ± 2.3 h.
For `O=C(O)/C=C/c1ccccc1O` [o-Coumaric acid], the concentration at 15 day [1] was 0.5 ± 0.1 µM, the concentration at 0 h [1] was 0.9 ± 0.1 µM and the concentration at 24 h [1] was 0.9 µM.
For `O=C(O)C=Cc1ccc(O)cc1` [p-Coumaric acid], the concentration at 15 day [1] was 0.3 µM, the concentration at 0 h [1] was 0.5 ± 0.1 µM and the concentration at 24 h [1] was 0.4 ± 0.1 µM.
For `O=C(O)CNC(=O)c1ccccc1` [Hippuric acid], the concentration at 15 day [1] was 2020 ± 242 µM and the concentration at 24 h [1] was 3710 ± 582 µM.
`O=C(O[C@@H]1O[C@H](CO)[C@@H](O)[C@H](O)[C@H]1O)c1cc(O)c(O)c(O)c1` [Compound C2] gave a Cmax (clinical; human, in vivo) of 0.0134 ± 0.0019 µM, a Tmax (clinical; human, in vivo) of 2.4 ± 0.3 h and a Cmax (clinical; human, in vivo, 100 mg) of 0.0021 ± 0.0003 µM. The “difference in plasma concentrations/areas after MP + VC beverage compared to MP beverage alone” value (clinical; in vivo) was “not statistically significant” and the “time within which absorbed” value (clinical; in vivo) was 1 to 2 h.
In the case of methylgallic acid [Compound C3], the Cmax (clinical; [3]) is reported as 0.0048 ± 0.0007 µM, the “AUC0–24h” value (clinical; [2]) is reported as 0.0259 ± 0.0019 µM·h and the “AUC0–24h” value (clinical; human, in vivo) is reported as 0.1611 ± 0.0136 µM·h. For the same compound, the Cmax (clinical; human, in vivo) was 0.0545 ± 0.0049 µM, the Tmax (clinical; human, in vivo) was 2.2 ± 0.3 h and the “difference in plasma concentrations/areas after MP + VC beverage compared to MP beverage alone” value (clinical; in vivo) was “not statistically significant”.
In the case of `O=C(O)c1cccc(O)c1O` [2,3-Dihydroxybenzoic acid], the concentration at 15 day [1] is reported as 0.3 ± 0.1 µM, the concentration at 0 h [1] is reported as 0.3 ± 0.1 µM and the concentration at 24 h [1] is reported as 0.2 ± 0.1 µM.
Work on `O=C(O)Cc1ccc(O)c(O)c1` [3,4-Dihydroxyphenylacetic acid] yielded a concentration at 15 day [1] of 3.8 ± 0.4 µM, a concentration at 0 h [1] of 8 ± 1.6 µM and a concentration at 24 h [1] of 4.5 ± 0.8 µM.
`O=Cc1ccc(O)cc1` [Compound 4-Hydroxybenzaldehyde] gave a concentration at 15 day [1] of 0.2 µM, a concentration at 0 h [1] of 0.2 ± 0.1 µM and a concentration at 24 h [1] of 0.2 µM.
`O=C(O)c1ccc(O)c(O)c1` [3,4-Dihydroxybenzoic acid] showed a concentration at 15 day [1] of 0.8 ± 0.2 µM, a concentration at 0 h [1] of 2.4 ± 0.7 µM and a concentration at 24 h [1] of 1.1 ± 0.3 µM.
In the case of `O=c1c2cc(O)c(O)cc2oc2cc(O)c([C@@H]3O[C@H](CO)[C@@H](O)[C@H](O)[C@H]3O)c(O)c12` [Compound C11, mangiferin], the “time within which cleared from the bloodstream” value (clinical; after mango intake) is reported as 6 to 8 h, the “content in plasma (as observed from areas) after MP and MP + VC vs. VC beverage alone” value (clinical; area vs. time profile 0−24 h) is reported as “significantly higher” and the “plasma concentration relative to limit of quantitation” value (clinical; human plasma after test beverages intake) is reported as “below the LOQ”. For the same compound, the Tmax (clinical; human, plasma, oral, 500 g, after mango intake, read-out: time to reach maximum concentration/area in plasma) was 1 to 2 h and the “difference in plasma concentrations/areas after MP + VC beverage compared to MP beverage alone” value (clinical; increase observed, statistical outcome) was “not statistically significant”.
For `O=S(=O)(O)Oc1cccc(O)c1O` [Compound C8], the Cmax (clinical; [3]) was 2.56 ± 0.894 µM, the “AUC0–24h” value (clinical; [2]) was 5.5049 ± 1.7634 µM·h and the “AUC0–24h” value (clinical; human, in vivo) was 18.8521 ± 3.4916 µM·h. For the same compound, the Cmax (clinical; human, in vivo) was 10 ± 1.78 µM and the Tmax (clinical; human, in vivo) was 7.3 ± 0.6 h.
With `COc1cc(/C=C/C(=O)O)ccc1O` [Ferulic acid] the “Concentration in fasting urine, Mean ± std Error, 0 h (Fasting)” value [1] was 0.5 ± 0.1 µM, the “Concentration in fasting urine, Mean ± std Error, 15 Days (Fasting)” value [1] was 0.4 ± 0.1 µM and the “Concentration in fasting urine, Mean ± std Error, 24 h (Fasting)” value [1] was 0.4 ± 0.1 µM.
For `O=C(O)Cc1ccc(O)cc1` [4-Hydroxyphenylacetic acid], the “Concentration in fasting urine, Mean ± std Error, 0 h (Fasting)” value [1] was 4.2 ± 1.3 µM, the “Concentration in fasting urine, Mean ± std Error, 15 Days (Fasting)” value [1] was 3.0 ± 0.9 µM and the “Concentration in fasting urine, Mean ± std Error, 24 h (Fasting)” value [1] was 2.6 ± 0.6 µM.
